The values that follow come from ChEMBL document CHEMBL1134360, “Thiazole and thiadiazole analogues as a novel class of adenosine receptor antagonists” (J Med Chem, 2001).

Experiment [1] addresses T1, Adenosine receptor A1 (Rattus norvegicus) (UniProt P25099).
T1 sequence (whole entry): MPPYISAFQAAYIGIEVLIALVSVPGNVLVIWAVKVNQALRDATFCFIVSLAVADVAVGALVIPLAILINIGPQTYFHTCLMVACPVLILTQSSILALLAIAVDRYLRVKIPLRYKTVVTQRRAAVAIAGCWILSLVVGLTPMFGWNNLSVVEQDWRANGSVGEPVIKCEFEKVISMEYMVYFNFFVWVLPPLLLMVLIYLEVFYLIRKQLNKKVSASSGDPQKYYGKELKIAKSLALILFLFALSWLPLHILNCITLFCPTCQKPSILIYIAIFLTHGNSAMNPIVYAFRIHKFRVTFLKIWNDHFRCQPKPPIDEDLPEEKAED
Kind of experiment: Displacement of [3H]DPCPX binding in adenosine A1 receptor of rat brain cortical membrane at a concentration of 10 uM. A general note: Loss of bound radioactivity is the signal in a displacement assay; it reports binding, not function.

Experiment [2] concerns the target Adenosine receptor A2a (Rattus norvegicus) (UniProt P30543). The experiment is described as follows: Displacement of [3H]CGS-21680 or [3H]ZM-241,385 binding in adenosine A2A receptor of rat striatal membrane at 10 uM.
The next experiment concerns the target T2, Adenosine receptor A3 (Homo sapiens, UniProt P0DMS8).
T2 sequence (P0DMS8 whole entry): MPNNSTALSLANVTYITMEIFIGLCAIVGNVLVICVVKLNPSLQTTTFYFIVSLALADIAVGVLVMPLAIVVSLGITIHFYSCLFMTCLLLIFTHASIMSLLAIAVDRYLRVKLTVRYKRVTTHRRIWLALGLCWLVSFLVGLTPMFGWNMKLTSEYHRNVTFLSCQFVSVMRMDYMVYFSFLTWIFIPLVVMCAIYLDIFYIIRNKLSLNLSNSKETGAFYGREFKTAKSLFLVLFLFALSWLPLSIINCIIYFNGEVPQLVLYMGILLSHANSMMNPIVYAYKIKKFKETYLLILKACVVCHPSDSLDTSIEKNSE
The experiment is described as follows: Displacement of [125I]AB-MECA from human adenosine A3 receptor expressed in HEK 293 cells. It is filed as cell-based, HEK293.

Another experiment deals with T3, Adenosine receptor A1 (Rattus norvegicus, UniProt P25099).
T3 sequence (P25099 whole entry): T1 sequence (whole entry)

Experiment [3] has as its target T1, Adenosine receptor A1 (Rattus norvegicus). Kind of experiment: Percentage displacement of [3H]DPCPX binding in adenosine A1 receptor of rat brain cortical membrane at a concentration of 10 uM.
Experiment [4] deals with Adenosine receptor A2a (Rattus norvegicus) (UniProt P30543). The experiment is described as follows: Displacement of [3H]ZM-241385 binding in adenosine A2A receptor of rat striatal membrane at a concentration of 10 uM.
Adenosine receptor A2a (Rattus norvegicus), sequence (P30543 whole entry): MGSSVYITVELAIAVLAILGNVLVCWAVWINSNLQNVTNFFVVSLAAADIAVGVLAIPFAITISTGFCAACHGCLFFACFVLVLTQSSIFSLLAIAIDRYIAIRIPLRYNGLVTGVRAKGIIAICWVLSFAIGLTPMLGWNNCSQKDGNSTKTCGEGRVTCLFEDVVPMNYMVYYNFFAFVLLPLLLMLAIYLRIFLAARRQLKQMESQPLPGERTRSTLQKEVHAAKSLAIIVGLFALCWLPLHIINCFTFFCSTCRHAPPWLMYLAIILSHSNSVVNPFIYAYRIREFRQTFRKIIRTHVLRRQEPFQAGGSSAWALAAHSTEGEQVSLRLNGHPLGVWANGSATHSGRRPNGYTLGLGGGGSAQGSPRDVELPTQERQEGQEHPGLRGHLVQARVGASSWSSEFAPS
Experiment [5] has as its target T4, Adenosine receptor A2a (Rattus norvegicus, UniProt P30543). The experiment is described as follows: Displacement of [3H]-CGS-21,680 or [3H]ZM-241385 binding in adenosine A2A receptor of rat striatal membrane was determined.
In experiment [6] the target is Adenosine receptor A2a (Rattus norvegicus) (UniProt P30543). The experiment is described as follows: Percentage displacement of [3H]-CGS- 21680 binding in adenosine A2A receptor of rat striatal membrane at a concentration of 10 uM.
For experiment [7], the target named is T4, Adenosine receptor A2a. The experiment is described as follows: Displacement of [3H]-CGS- 21680 binding in adenosine A2A receptor of rat striatal membrane.
Experiment [8] deals with Adenosine receptor A2a (Rattus norvegicus) (UniProt P30543). The experiment is described as follows: Percent displacement of [3H]-CGS- 21680 binding in adenosine A2A receptor of rat striatal membrane at a concentration of 10 uM.
The target in experiment [9] is T1, Adenosine receptor A1 (Rattus norvegicus). The following applies: 10 uM.
Description: Percent displacement of [3H]DPCPX binding in adenosine A1 receptor of rat brain cortical membrane at a concentration of 10 uM
Experiment [10] concerns the target T5, Adenosine receptor A3 (Homo sapiens) (UniProt P0DMS8).
T5 sequence (whole entry): T2 sequence (P0DMS8 whole entry)
Kind of experiment: Displacement of [125I]AB-MECA from adenosine A3 receptor expressed in HEK 293 cells at 10 uM. Particulars: HEK293.

Each structure is given as a SMILES string.

One may read the Ki as a dissociation constant, usually derived from enzyme kinetics or from competition with a known ligand.

T4 sequence (P30543 whole entry): as above

For the molecule `COc1ccc(C(=O)Nc2cccc(-c3ccccc3)c2)cc1`, the figures for the Displacement in [1] and in [2] were 30% and 41%, respectively. The Ki on Adenosine receptor A3 stood at 10000 nM.

In [2], `O=C(Nc1nc(-c2ccccc2)ns1)c1ccc(Cl)cc1` yielded a Displacement of 36%. Besides, the values for the Ki on Adenosine receptor A3 and at Adenosine receptor A1 were 520 nM and 41 nM, respectively.

In the case of `O=C(Nc1ccccc1)Nc1nc(-c2ccccc2)cs1`, the Displacement was determined as 37% in experiment [3] and 19% in experiment [4]. Besides, the inhibition constant Ki at Adenosine receptor A3 was 9900 nM.

For the molecule `O=C(Nc1nc(-c2ccccc2)ns1)C1CCC(O)CC1` (stereo in doubt) [listing 1 of 2 here], the results for the Ki on Adenosine receptor A3 and on Adenosine receptor A1 were 1900 nM and 20 nM, respectively.

In the case of `COc1ccc(C(=O)Nc2nc(-c3ccccc3)ns2)cc1C`, the Displacement in experiment [1] turned out to be 48%; in [2] it was 8%. Moreover, affinity at Adenosine receptor A3 was put at a Ki of 580 nM.

In experiment [2], `O=C(Nc1nc(-c2ccccc2)ns1)C1CCCCC1` returned a Displacement of 16%. In addition, the inhibition constant Ki was 16000 nM on Adenosine receptor A3 and 1400 nM on Adenosine receptor A1.

In turn, `O=C(Nc1nc(-c2ccccn2)cs1)c1ccc(I)cc1` displayed a Displacement in [2] of 50%.

Take `O=C(Nc1nc(-c2ccccc2)ns1)c1ccc(O)cc1`: the figures for the Ki on Adenosine receptor A2a [5], on Adenosine receptor A3 and at Adenosine receptor A1 were 570 nM, 130 nM and 7.3 nM, respectively.

Turning to `O=C(Nc1ccccc1)Nc1nc(-c2ccccc2)ns1`, in [2], the Displacement came to 48%. Moreover, the Ki was 4000 nM on Adenosine receptor A3 and 1000 nM on Adenosine receptor A1.

On to `O=C(Nc1nc(-c2ccccn2)cs1)c1cccc(Cl)c1`, for which the Ki at Adenosine receptor A2a [5] was found to be 1300 nM; at Adenosine receptor A3, 4600 nM; on Adenosine receptor A1 it was 1700 nM.

For `Cc1ccc(C(=O)Nc2nc(-c3ccccc3)ns2)cc1`, in experiment [2], the Displacement came to 38.2%. Further, the Ki on Adenosine receptor A3 was 140 nM; at Adenosine receptor A1 it was 30 nM.

Consider `COc1ccc(NC(=O)Nc2nc(-c3ccccc3)ns2)cc1`, for which the figures for the Displacement in experiment [1] and in experiment [2] were 44% and 16%, respectively. The same molecule showed a Ki on Adenosine receptor A3 of 3300 nM.

In experiment [6], `O=C(Nc1nc(-c2ccccn2)cc2ccccc12)c1ccccc1` yielded a Displacement of 0%.

`O=C(Nc1nc(-c2ccccc2)nc2ccccc12)c1ccccc1`: the Displacement in experiment [3] amounted to 34%; in experiment [6], 17%. In addition, on Adenosine receptor A3, affinity was put at a Ki of 240 nM.

`Cc1ccc(C(=O)Nc2nc(-c3ccccn3)cs2)cc1` yielded a Displacement in [2] of 44%. For the same molecule, the Ki on Adenosine receptor A3 was found to be 3200 nM; on Adenosine receptor A1, 1600 nM.

Molecule `COc1ccc(C(=O)Nc2nc(-c3ccccn3)cs2)cc1` showed a Displacement in [2] of 40%. Besides, the Ki is 1800 nM at Adenosine receptor A3 and 3200 nM at Adenosine receptor A1.

For `O=C(Nc1ccccc1)Nc1nc(-c2ccccn2)cs1`, the Ki on Adenosine receptor A2a [5] is 920 nM; at Adenosine receptor A3, 5000 nM; at Adenosine receptor A1 it was 930 nM.

Regarding `COc1ccccc1NC(=O)Nc1nc(-c2cccnc2)nc2ccccc12`, the Ki on Adenosine receptor A2a [7] is over 10000 nM; at Adenosine receptor A3, 4 nM; at Adenosine receptor A1, over 10000 nM.

In turn, `COc1ccc(C(=O)Nc2nc(-c3ccccc3)cc3ccccc23)cc1` came in with a Displacement in [6] of 35%. Also, the Ki on Adenosine receptor A3 was found to be 79 nM; on Adenosine receptor A1 it was 3000 nM.

For `O=C(Nc1nc(-c2ccccc2)ns1)C1CCC(O)CC1` (stereo in doubt) [listing 2 of 2 here], the Displacement in experiment [2] stood at 37%.

As to `COC1CCC(C(=O)Nc2nc(-c3ccccc3)ns2)CC1` (stereo in doubt; 8l), the Ki at Adenosine receptor A2a [5] was 2000 nM; on Adenosine receptor A3 it was 5300 nM; on Adenosine receptor A1, 110 nM.

`O=C(Nc1nc(-c2ccccn2)nc2ccccc12)c1ccccc1`: the Displacement was found to be 16% in [3] and 9% in experiment [6].

Regarding `O=C(O)COc1ccc(C(=O)Nc2nc(-c3ccccc3)ns2)cc1`, the Ki on Adenosine receptor A2a [5] is 15000 nM; on Adenosine receptor A3, 1200 nM; on Adenosine receptor A1 it was 100 nM.

In the case of `COc1ccc(C(=O)Nc2nc(-c3ccccc3)ns2)cc1`, the figures for the Ki at Adenosine receptor A2a [5], at Adenosine receptor A3 and on Adenosine receptor A1 were 2300 nM, 82 nM and 32 nM, respectively.

Turning to `COc1ccc(C(=O)Nc2nc(-c3ccccn3)cc3ccccc23)cc1`, the inhibition constant (Ki) on Adenosine receptor A2a [7] and at Adenosine receptor A1 was over 10000 nM each time. Further, the Displacement was 19% in [8] and 37% in [9].

As to `O=C(Nc1nc(-c2ccccn2)cs1)C1CCCC1`, the Ki on Adenosine receptor A2a [5] is 1300 nM; at Adenosine receptor A3, 2100 nM; on Adenosine receptor A1 it was 920 nM.

Molecule `CC(C)Oc1ccc(C(=O)Nc2nc(-c3ccccn3)cs2)cc1` registered a Displacement in [2] of 44%. Also, the Ki on Adenosine receptor A3 was found to be 3700 nM; on Adenosine receptor A1 it was 5800 nM.

Consider `COc1ccc(C(=O)Nc2cccc(-c3ccccc3)n2)cc1`, for which the Displacement in experiment [1] turned out to be 46%; in experiment [2] it was 16%. In addition, the affinity on Adenosine receptor A3, expressed as Ki, was 8700 nM.

Molecule `COC(=O)C1=C2C=CN(C)C=C2c2nc(-c3ccccc3)nn2C1` showed a Ki at Adenosine receptor A3 of 170 nM.

`O=C(Nc1nc(-c2ccccn2)cs1)c1ccc([N+](=O)[O-])cc1` came in with a Displacement in experiment [2] of 29%.

`O=C(Nc1nc(-c2ccccc2)ns1)c1ccc([N+](=O)[O-])cc1`: the Displacement worked out at 34% in [1], 5% in experiment [2] and 28% in experiment [10].

With `COC1CCC(C(=O)Nc2nc(-c3ccccc3)ns2)CC1` (stereo in doubt; 8k), the Ki stood at 1900 nM at Adenosine receptor A2a [5], 1700 nM at Adenosine receptor A3 and 32 nM on Adenosine receptor A1.

Regarding `O=C(Nc1nc(-c2ccccc2)ns1)c1ccccc1`, the Ki turned out to be 4400 nM on Adenosine receptor A2a [5], 410 nM at Adenosine receptor A3 and 31 nM on Adenosine receptor A1.

`O=C(Nc1nc(-c2ccccc2)ns1)C1CCC(O)CC1` (stereo in doubt; 8n) [listing 1 of 2 here]: the Ki turned out to be 2700 nM at Adenosine receptor A3 and 42 nM on Adenosine receptor A1.

Consider `COc1ccc(C(=O)Nc2nc(-c3ccccc3)nc3ccccc23)cc1`, for which the Displacement in [6] is 44%. The Ki on Adenosine receptor A3 was 27 nM; on Adenosine receptor A1, 1800 nM.

With `COc1ccc(C(=O)NC2=NN(c3ccccc3)CC2)cc1`, the Displacement in experiment [1] is 26%; in experiment [2], 19%; in [10], 41%.

Take `COc1ccc(NC(=O)Nc2nc(-c3ccccn3)cs2)cc1`: the Displacement was found to be 4% in [1] and 11% in experiment [2]. The molecule also returned a Ki on Adenosine receptor A3 of 147000 nM.

Turning to `Nc1nc2ccc(Cl)cc2c2nc(-c3ccco3)nn12` [CGS-15943], on Adenosine receptor A3, the Ki worked out at 140 nM.

As for `O=C(Nc1nc(-c2ccccc2)ns1)c1ccc(I)cc1`, the Displacement turned out to be 49% in [1] and 19% in [2]. The molecule also came in with a Ki on Adenosine receptor A3 of 1100 nM.

`O=C(Nc1nc(-c2ccccn2)cs1)c1ccccc1`: the Ki at Adenosine receptor A2a [5] amounted to 8700 nM; on Adenosine receptor A3, 3400 nM; at Adenosine receptor A1, 1700 nM.

In the case of `COc1ccc(C(=O)Nc2cc(-c3ccccc3)[nH]n2)cc1`, the Displacement in experiment [1] turned out to be 20%; in [2], 16%; in experiment [10], 35%.

As to `COc1ccc(C(=O)Nc2cc(-c3ccccc3)ncn2)cc1`, the Displacement in experiment [2] came out at 31%. The same molecule registered a Ki on Adenosine receptor A3 of 800 nM.

Take `COc1ccc(C(=O)Nc2nc(-c3ccccc3)cs2)cc1`: the Ki on Adenosine receptor A2a [5] worked out at 1900 nM; at Adenosine receptor A3, 670 nM; on Adenosine receptor A1 it was 76 nM.

The molecule `O=C(Nc1nc(-c2ccccn2)cs1)c1ccc(Cl)cc1` returned a Displacement in experiment [2] of 30%.

`O=C(Nc1nc(-c2ccccc2)cc2ccccc12)c1ccccc1` came in with a Displacement in experiment [6] of 0%. The Ki at Adenosine receptor A3 and on Adenosine receptor A1 was 1200 nM in each case.

Consider `O=C(Nc1nc(-c2ccccn2)cs1)c1ccc(Cl)c(Cl)c1`, for which the Displacement in experiment [2] was found to be 20%. For the same molecule, the Ki on Adenosine receptor A3 was found to be 2500 nM; at Adenosine receptor A1 it was 1600 nM.

Turning to `COc1ccccc1NC(=O)Nc1nc(-c2ccccc2)ns1`, the Displacement worked out at 27% in experiment [1], 38% in [2] and 20% in [10].

As to `O=C(Nc1nc(-c2ccccc2)ns1)C1CCC(O)CC1` (stereo in doubt; 8n) [listing 2 of 2 here], the Displacement in [2] was 41%.
